Where a name gives a salt, the structure may show the parent alone.

In assay [1] the test system is Human hepatic stellate cell line LX-2. Description: Calcium Influx of Human Hepatic Stellate Cells (LX-2). Format: cell-based. Conditions: LX-2 cells, LPA-stimulated calcium influx. On the procedure:
Calcium Influx of Human Hepatic Stellate Cells (LX-2)
Human hepatic stellate cell line LX-2 is purchased from EMD Millpore. LX-2 cells are seeded at 20,000-40,000 cells per well in a 96-well poly-D-lysine coated plate one day before the assay. Prior to the assay, the cells are washed once with assay buffer (HBSS containing 20 mM HEPES and 0.2% BSA) and then incubated in 50 μl of assay buffer for 60 minutes. Then 50 μl of a calcium indicator dye (Fluo-4 NW, Molecular Probes) are added to each well and incubation is continued for 30 minutes at 37° C. and then 30 minutes at room temperature. 50 μl of test compounds in 4% DMSO are added to the cells and incubation is continued at room temperature for 40 minutes. Cells are stimulated by the addition of 50 μl of 128 nM LPA and intracellular calcium is measured using the FLIPR TETRA (Molecular Devices). IC50 values are determined using “Genedata Screener” analysis tool.

Assay [2] has as its target T1, LPAR1 (Homo sapiens (Human), UniProt Q92633). Nature of the assay: LPAR1 Membrane Binding Assay. Conditions: membrane containing LPAR1, radio labeled ligand, SPA. As to the method: LPAR1 Membrane Binding Assay
The ability of a compound to inhibit binding of a ligand (1-(4′-(4-(((benzyloxy)carbonyl)amino)-3-methylisoxazol-5-yl)-[1,1′-biphenyl]-4-yl)cyclopropane-1-carboxylic acid) to LPAR1 is assessed via a membrane binding assay. Membrane containing LPAR1 was purchased from Cerep (Cat. No. 290312RB). Prior to the assay, membrane is thawed and homogenized for 15 seconds. 50 μl of test compounds and 50 μl of radio labeled ligand are added to the 96-well plates and then 50 of μl membrane (50-400 ug/ml) are added. Next, 50 μl of SPA PVT WGA beads are added (1-5 mg/ml) and the plates are sealed and incubated at room temperate for 5 minutes. Radio activity is measured by Beta Counter and IC50 values are determined using “Genedata Screener” analysis tool.
Target sequence in this assay (Q92633 whole entry, species assumed): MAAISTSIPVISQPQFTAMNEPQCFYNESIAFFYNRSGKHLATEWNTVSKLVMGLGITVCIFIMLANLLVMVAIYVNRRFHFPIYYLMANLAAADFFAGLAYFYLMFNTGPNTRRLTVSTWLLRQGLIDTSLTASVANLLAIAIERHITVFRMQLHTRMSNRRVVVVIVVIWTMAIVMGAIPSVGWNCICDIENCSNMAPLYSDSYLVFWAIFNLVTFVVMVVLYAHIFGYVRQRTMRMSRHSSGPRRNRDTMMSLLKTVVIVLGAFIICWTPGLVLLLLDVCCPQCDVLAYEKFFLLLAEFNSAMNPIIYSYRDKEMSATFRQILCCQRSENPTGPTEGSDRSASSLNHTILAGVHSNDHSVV

In assay [3] the target is T1, LPAR1. Description: LPAR1 Calcium Flux Assay. Format: cell-based. The following applies: U937 cells overexpressing human LPAR1, LPA-stimulated calcium, FLIPR. As to the method:
LPAR1 Calcium Flux Assays
A cDNA encoding the human LPAR1 receptor is synthesized and cloned into pDNA3 expression plasmid. The plasmid is transfected in U937 cells using Lipofectamine 2000 (Invitrogen Corp., USA). Clones stably expressing human LPAR1 are selected using puromycin and identified as cells that show Ca-influx in response to LPA.
U937 cells overexpressing human LPAR1 are seeded at 100,000 cells per well in a 96-well fibronectin (10 ug/ml) coated plate in 60 μl of assay buffer (HBSS containing 20 mM HEPES and 0.2% BSA) and then incubated for 60 minutes. Then 50 μl of a calcium indicator dye (Fluo-4 NW, Molecular Probes) are added to each well and incubation continued for 30 minutes at 37° C. and then 30 minutes at room temperature. 50 μl of test compounds in 4% DMSO are added to the cells and incubation continued at room temperature for 40 minutes. Cells are the stimulated by the addition of 50 μl of 128 nM LPA and intracellular calcium is measured using the FLIPR TETRA (Molecular Devices). IC50 values are determined using “Genedata Screener” analysis tool.
Target sequence in this assay (Q92633 whole entry): as the sequence (Q92633 whole entry, species assumed) above
(In general: Calcium flux is commonly read through the fluorescence of an indicator in the cells.)

A further assay addresses human LPAR3 (Homo sapiens (Human), UniProt Q9UBY5). Nature of the assay: LPAR3 Calcium Flux Assay. Format: cell-based. The following applies: U2OS cells overexpressing human LPAR3, LPA-stimulated calcium, FLIPR. On the procedure:
LPAR3 Calcium Flux Assays
A cDNA encoding the human LPAR3 receptor is synthesized and cloned into pDNA3 expression plasmid. The plasmid is transfected in U2OS cells using Lipofectamine 2000 (Invitrogen Corp., USA). Clones stably expressing human LPAR3 are selected using neomycin and identified as cells that show Ca-influx in response to LPA.
U2OS cells overexpressing human LPAR3 are seeded at 20,000-40,000 cells per well in a 96-well poly-D-lysine coated plate one day before the assay. Prior to the assay, the cells are washed once with assay buffer (HBSS containing 20 mM HEPES and 0.2% BSA) and then incubated in 50 μl of assay buffer for 60 minutes. Then 50 μl of a calcium indicator dye (Fluo-4 NW, Molecular Probes) are added to each well and incubation is continued for 30 minutes at 37° C. and then 30 minutes at room temperature. 50 μl of test compounds in 4% DMSO are added to the cells and incubation continued at room temperature for 40 minutes. Cells are stimulated by the addition of 50 μl of 128 nM LPA and intracellular calcium is measured using the FLIPR TETRA (Molecular Devices). IC50 values are determined using “Genedata Screener” analysis tool.

Chain of human LPAR3 (Q9UBY5 whole entry): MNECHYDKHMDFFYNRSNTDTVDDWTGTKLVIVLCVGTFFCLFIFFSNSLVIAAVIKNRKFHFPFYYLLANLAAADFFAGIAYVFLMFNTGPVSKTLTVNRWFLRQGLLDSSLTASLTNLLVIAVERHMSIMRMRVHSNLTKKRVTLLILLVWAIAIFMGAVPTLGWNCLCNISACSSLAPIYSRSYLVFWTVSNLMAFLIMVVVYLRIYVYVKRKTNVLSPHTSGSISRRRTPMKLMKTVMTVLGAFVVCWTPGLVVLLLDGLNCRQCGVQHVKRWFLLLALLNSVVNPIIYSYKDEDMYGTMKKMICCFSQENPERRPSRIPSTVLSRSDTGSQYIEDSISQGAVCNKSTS

As usually defined, the IC50 is the point on the concentration scale where inhibition reaches its midpoint. The Ki is the dissociation constant of the complex between target and ligand, obtained from inhibition or displacement. As to `COC(C)(C)c1cncc(Nc2c(-c3ccc(-c4ccc(C5(C(=O)O)CC5)cc4)cn3)cnn2C)n1` [Example 6, 1-[4-[6-[5-[[6-(1-methoxy-1-methyl-ethyl)pyrazin-2-yl]amino]-1-methyl-pyrazol-4-yl]-3-pyridyl]phenyl]cyclopropanecarboxylic Acid; Hydrochloride], the IC50 came to 60.5 nM in assay [1], 122 nM at LPAR1 [3] and 5270 nM at human LPAR3. Moreover, the affinity at LPAR1 [2] corresponds to a Ki of 115 nM.

As for `Cn1ncc(-c2ncc(-c3ccc(C4(C(=O)O)CC4)cc3)cc2F)c1Nc1cncc(C(C)(C)F)n1` [Example 4, 1-[4-[5-fluoro-6-[5-[[6-(1-fluoro-1-methyl-ethyl)pyrazin-2-yl]amino]-1-methyl-pyrazol-4-yl]-3-pyridyl]phenyl]cyclopropanecarboxylic Acid Hydrochloride], the IC50 in assay [1] was determined as 8.67 nM; at LPAR1 [3] it was 16.7 nM; at human LPAR3 it was 1590 nM. For the same compound, the Ki at LPAR1 [2] was 80.5 nM.

Take `COCc1cc(C2(C(=O)O)CC2)ccc1-c1ccc(-c2cnn(C)c2Nc2cncc(C(C)C)n2)nc1` [Example 14, 1-[4-[6-[5-[(6-isopropylpyrazin-2-yl)amino]-1-methyl-pyrazol-4-yl]-3-pyridyl]-3-(methoxymethyl)phenyl]cyclopropanecarboxylic Acid; Hydrochloride]: the IC50 in assay [1] was 13.2 nM; on LPAR1 [3], 45.8 nM; on human LPAR3, > 10000 nM.

For `Cn1ncc(-c2ccc(-c3ccc(C4(C(=O)O)CC4)cc3)cn2)c1Nc1cncc(OC2CC(F)(F)C2)n1` [Example 5, 1-[4-[6-[5-[[6-(3,3-difluorocyclobutoxy)pyrazin-2-yl]amino]-1-methyl-pyrazol-4-yl]-3-pyridyl]phenyl]cyclopropanecarboxylic Acid], the IC50 in assay [1] stood at 17.1 nM; on LPAR1 [3], 26.9 nM; on human LPAR3 it was 49.6 nM. The compound further came in with a Ki at LPAR1 [2] of 51.4 nM.

As to `CC(C)Oc1cncc(Nc2c(-c3ncc(-c4ccc(C5(C(=O)O)CC5)cc4)cc3F)cnn2C)n1` [Example 11, 1-[4-[5-fluoro-6-[5-[(6-isopropoxypyrazin-2-yl)amino]-1-methyl-pyrazol-4-yl]-3-pyridyl]phenyl]cyclopropanecarboxylic Acid; Hydrochloride], the IC50 worked out at 10 nM in assay [1], 11.1 nM on LPAR1 [3] and 495 nM on human LPAR3. Affinity at LPAR1 [2] was put at a Ki of 34.6 nM.

For the compound `Cn1ncc(-c2ncc(-c3ccc(C4(C(=O)O)CC4)cc3)cc2F)c1Nc1cncc(OC2CC2)n1` [Example 3, 1-[4-[6-[5-[[6-(cyclopropoxy)pyrazin-2-yl]amino]-1-methyl-pyrazol-4-yl]-5-fluoro-3-pyridyl]phenyl]cyclopropanecarboxylic Acid; Hydrochloride], the results for the IC50 (in assay [1]; at LPAR1 [3]; at human LPAR3) were 3.8 nM, 8.61 nM and 2480 nM, respectively. Also, the affinity on LPAR1 [2] corresponds to a Ki of 44.2 nM.

`Cn1ncc(-c2ccc(-c3ccc(C4(C(=O)O)CC4)cc3)cn2)c1Nc1cncc(OC2CC2)n1` [Example 10, 1-[4-[6-[5-[[6-(cyclopropoxy)pyrazin-2-yl]amino]-1-methyl-pyrazol-4-yl]-3-pyridyl]phenyl]cyclopropanecarboxylic Acid]: the IC50 in assay [1] worked out at 5.41 nM; on LPAR1 [3], 9.86 nM; on human LPAR3, 4420 nM. Also, the Ki on LPAR1 [2] was determined as 12.5 nM.

Turning to `Cn1ncc(-c2ccc(-c3ccc(C4(C(=O)O)CC4)c(C#N)c3)cn2)c1Nc1cncc(OC2CC2)n1` [Example 9, 1-[2-cyano-4-[6-[5-[[6-(cyclopropoxy)pyrazin-2-yl]amino]-1-methyl-pyrazol-4-yl]-3-pyridyl]phenyl]cyclopropanecarboxylic Acid; Hydrochloride], the IC50 in assay [1] is 10.5 nM; at LPAR1 [3], 17.9 nM; on human LPAR3, > 10000 nM.

For the compound `Cn1ncc(-c2ccc(-c3ccc(C4(C(=O)O)CC4)cc3)cn2)c1Nc1cncc(OC(C)(C)C)n1` [Example 1, 1-[4-[6-[5-[(6-tert-butoxypyrazin-2-yl)amino]-1-methyl-pyrazol-4-yl]-3-pyridyl]phenyl]cyclopropanecarboxylic Acid], the IC50 in assay [1] turned out to be 37.2 nM; at LPAR1 [3], 74.4 nM; on human LPAR3 it was 1330 nM.

With `Cc1cc(-c2ccc(-c3cnn(C)c3Nc3cncc(OC(C)C)n3)nc2)ccc1C1(C(=O)O)CC1` [Example 7, 1-[4-[6-[5-[(6-isopropoxypyrazin-2-yl)amino]-1-methyl-pyrazol-4-yl]-3-pyridyl]-2-methyl-phenyl]cyclopropanecarboxylic Acid; Hydrochloride], the IC50 in assay [1] turned out to be 16.3 nM; at LPAR1 [3], 27.1 nM; at human LPAR3, 1050 nM. The compound also yielded a Ki on LPAR1 [2] of 72.3 nM.

Turning to `CC(C)c1cncc(Nc2c(-c3cnc(-c4ccc(C5(C(=O)O)CC5)cc4)cn3)cnn2C)n1` [Example 19, 1-[4-[5-[5-[(6-isopropylpyrazin-2-yl)amino]-1-methyl-pyrazol-4-yl]pyrazin-2-yl]phenyl]cyclopropanecarboxylic Acid; Hydrochloride], the results for the IC50 (in assay [1]; on LPAR1 [3]; at human LPAR3) were 16.3 nM, 88.1 nM and 2400 nM, respectively.

`Cn1ncc(-c2ccc(-c3ccc(C4(C(=O)O)CC4)c(C(F)(F)F)c3)cn2)c1Nc1cncc(OC2CC2)n1` [Example 8, 1-[4-[6-[5-[[6-(cyclopropoxy)pyrazin-2-yl]amino]-1-methyl-pyrazol-4-yl]-3-pyridyl]-2-(trifluoromethyl)phenyl]cyclopropanecarboxylic Acid; Hydrochloride]: the IC50 in assay [1] is 7.13 nM.

On to `CC(C)c1cncc(Nc2c(-c3ccc(-c4ccc(C5(C(=O)O)CC5)cc4C#N)cn3)cnn2C)n1` [Example 16, 1-[3-cyano-4-[6-[5-[(6-isopropylpyrazin-2-yl)amino]-1-methyl-pyrazol-4-yl]-3-pyridyl]phenyl]cyclopropanecarboxylic Acid; Hydrochloride], for which the IC50 in assay [1] stood at 18.2 nM; on LPAR1 [3] it was 29.3 nM; at human LPAR3, 4620 nM. For the same compound, on LPAR1 [2], affinity was put at a Ki of 53.8 nM.

In the case of `CC(C)c1cncc(Nc2c(-c3ccc(-c4ccc(C5(C(=O)O)CC5)cn4)cn3)cnn2C)n1` [Example 24, 1-[6-[6-[5-[(6-isopropylpyrazin-2-yl)amino]-1-methyl-pyrazol-4-yl]-3-pyridyl]-3-pyridyl]cyclopropanecarboxylic Acid; Dihydrochloride], the half-maximal inhibitory concentration (IC50) in assay [1] came to 15.3 nM; at LPAR1 [3] it was 48 nM; on human LPAR3, 2760 nM. The compound also yielded a Ki at LPAR1 [2] of 46.2 nM.

Turning to `Cn1ncc(-c2ccc(-c3ccc(C4(C(=O)O)CC4)cc3)cn2)c1Nc1cncc(OC2CCC2)n1` [Example 2, 1-[4-[6-[5-[[6-(cyclobutoxy)pyrazin-2-yl]amino]-1-methyl-pyrazol-4-yl]-3-pyridyl]phenyl]cyclopropanecarboxylic Acid], the values for the IC50 (in assay [1]; at LPAR1 [3]; at human LPAR3) were 9.22 nM, 17.2 nM and 327 nM, respectively.

(Values after US11365185B2, “Lysophosphatidic acid receptor 1 (LPAR1) inhibitor compounds” (Eli Lilly and Company, priority 2017, dated 2022).)
